“And” between values parts separate entries of the source, which are not always exact repeats. Equal entries are not always repeated. Non-standard residues stand in square brackets, D forms with d. No end group written: not given here. *: point of attachment. Phe(F5) = N[C@@H](Cc1c(F)c(F)c(F)c(F)c1F)C(=O)O; Bip = N[C@@H](Cc1ccc(-c2ccccc2)cc1)C(=O)O; Phe(4-Cl) = N[C@@H](Cc1ccc(Cl)cc1)C(=O)O; Phe(2-Cl) = N[C@@H](Cc1ccccc1Cl)C(=O)O; 1Nal = N[C@@H](Cc1cccc2ccccc12)C(=O)O; 2Nal = N[C@@H](Cc1ccc2ccccc2c1)C(=O)O; Met(O2) = CS(=O)(=O)CC[C@H](N)C(=O)O; Tic = O=C(O)[C@@H]1Cc2ccccc2CN1; Cha = N[C@@H](CC1CCCCC1)C(=O)O; Phg = N[C@H](C(=O)O)c1ccccc1; Tle = CC(C)(C)[C@H](N)C(=O)O; Abu = CC[C@H](N)C(=O)O; Bn = c1ccc(C*)cc1
Experiments:
Test in all cases: tetrapeptide-ACC substrate cleavage kinetics
Format in all cases: biochemical
human caspase-4 = target: T1, human caspase-4 (Homo sapiens, UniProt P49662); conditions: Ac-P4-P3-P2-Asp-ACC substrate, 0.05-500 μM, 35-200 nM enzyme, 37°C, triplicate
T1 sequence (P49662 81-270 limits assumed): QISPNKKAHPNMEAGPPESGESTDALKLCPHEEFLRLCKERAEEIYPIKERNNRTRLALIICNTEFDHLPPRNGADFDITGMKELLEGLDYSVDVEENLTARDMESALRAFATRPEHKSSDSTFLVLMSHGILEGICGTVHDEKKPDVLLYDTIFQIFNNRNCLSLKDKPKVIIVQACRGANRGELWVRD
T1 sequence (P49662 290-377 limits assumed): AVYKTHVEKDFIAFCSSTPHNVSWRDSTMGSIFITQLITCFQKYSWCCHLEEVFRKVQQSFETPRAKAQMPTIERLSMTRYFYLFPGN

human caspase-9 = target: T2, human caspase-9 (Homo sapiens, UniProt P55211); conditions: Ac-P4-P3-P2-Asp-ACC substrate, 0.05-500 μM, 20-150 nM enzyme, 37°C, triplicate
T2 sequence (P55211 1-315 limits assumed): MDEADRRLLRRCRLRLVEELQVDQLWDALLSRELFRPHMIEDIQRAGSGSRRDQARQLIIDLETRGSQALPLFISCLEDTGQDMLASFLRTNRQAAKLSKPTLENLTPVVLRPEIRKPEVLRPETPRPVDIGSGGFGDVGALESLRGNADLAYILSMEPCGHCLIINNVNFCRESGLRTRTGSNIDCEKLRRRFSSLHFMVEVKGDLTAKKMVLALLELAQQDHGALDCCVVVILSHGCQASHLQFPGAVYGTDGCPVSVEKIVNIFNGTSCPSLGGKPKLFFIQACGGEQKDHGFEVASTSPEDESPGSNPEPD
T2 sequence (P55211 331-416 limits assumed): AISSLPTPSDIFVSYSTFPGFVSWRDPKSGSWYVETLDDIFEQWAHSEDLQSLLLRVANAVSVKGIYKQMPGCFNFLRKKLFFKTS

human caspase-5 = target: T3, human caspase-5 (Homo sapiens, UniProt P51878); conditions: Ac-P4-P3-P2-Asp-ACC substrate, 0.05-500 μM, 20-250 nM enzyme, 37°C, triplicate
T3 sequence (P51878 137-327 limits assumed): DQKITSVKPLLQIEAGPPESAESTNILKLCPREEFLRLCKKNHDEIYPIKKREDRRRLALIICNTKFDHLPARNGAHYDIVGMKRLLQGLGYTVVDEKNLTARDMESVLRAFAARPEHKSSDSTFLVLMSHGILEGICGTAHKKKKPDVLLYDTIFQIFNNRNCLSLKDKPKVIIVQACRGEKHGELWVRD
T3 sequence (P51878 347-434 limits assumed): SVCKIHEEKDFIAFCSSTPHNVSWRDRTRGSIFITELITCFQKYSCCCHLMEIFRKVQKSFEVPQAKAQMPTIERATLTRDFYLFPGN

human caspase-8 = human caspase-8 (Homo sapiens, UniProt Q14790); conditions: Ac-P4-P3-P2-Asp-ACC substrate, 0.05-500 μM, 6-42 nM enzyme, 37°C, triplicate
human caspase-8, sequence (Q14790 217-374 limits assumed): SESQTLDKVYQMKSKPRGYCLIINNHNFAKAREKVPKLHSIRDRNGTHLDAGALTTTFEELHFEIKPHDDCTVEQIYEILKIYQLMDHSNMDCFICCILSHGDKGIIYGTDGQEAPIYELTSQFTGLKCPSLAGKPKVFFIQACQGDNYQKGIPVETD
human caspase-8, sequence (Q14790 385-479 limits assumed): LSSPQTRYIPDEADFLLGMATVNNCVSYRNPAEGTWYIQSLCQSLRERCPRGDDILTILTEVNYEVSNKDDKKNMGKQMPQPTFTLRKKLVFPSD

human caspase-3 = target: T4, human caspase-3 (Homo sapiens, UniProt P42574); conditions: Ac-P4-P3-P2-Asp-ACC substrate, 0.05-500 μM, 3-35 nM enzyme, 37°C, triplicate
T4 sequence (P42574 29-175 limits assumed): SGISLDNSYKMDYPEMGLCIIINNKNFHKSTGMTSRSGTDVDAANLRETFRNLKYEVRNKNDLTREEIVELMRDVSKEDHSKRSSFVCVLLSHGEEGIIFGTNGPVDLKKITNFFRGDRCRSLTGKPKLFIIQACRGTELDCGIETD
T4 sequence (P42574 176-277 limits assumed): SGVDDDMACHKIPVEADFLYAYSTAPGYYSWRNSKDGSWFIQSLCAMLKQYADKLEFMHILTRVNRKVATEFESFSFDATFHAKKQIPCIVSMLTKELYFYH

human caspase-7 = target: T5, human caspase-7 (Homo sapiens, UniProt P55210); conditions: Ac-P4-P3-P2-Asp-ACC substrate, 0.05-500 μM, 40-400 nM enzyme, 37°C, triplicate
T5 sequence (P55210 24-198 limits assumed): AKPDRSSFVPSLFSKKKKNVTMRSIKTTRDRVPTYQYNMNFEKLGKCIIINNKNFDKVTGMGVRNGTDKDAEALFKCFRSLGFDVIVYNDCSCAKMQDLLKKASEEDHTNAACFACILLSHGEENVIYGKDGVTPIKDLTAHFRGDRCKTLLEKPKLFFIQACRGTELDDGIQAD
T5 sequence (P55210 207-303 limits assumed): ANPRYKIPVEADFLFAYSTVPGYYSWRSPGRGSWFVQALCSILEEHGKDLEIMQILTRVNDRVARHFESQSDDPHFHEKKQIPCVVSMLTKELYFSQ

human caspase-1 = target: T6, human caspase-1 (Homo sapiens, UniProt P29466); conditions: Ac-P4-P3-P2-Asp-ACC substrate, 0.05-500 μM, 2-15 nM enzyme, 37°C, triplicate
T6 sequence (P29466 120-297 limits assumed): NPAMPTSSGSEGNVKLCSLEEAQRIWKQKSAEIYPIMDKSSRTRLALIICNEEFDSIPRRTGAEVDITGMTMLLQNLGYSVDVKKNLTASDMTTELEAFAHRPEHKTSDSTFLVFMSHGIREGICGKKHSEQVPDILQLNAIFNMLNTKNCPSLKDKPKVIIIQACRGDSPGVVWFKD
T6 sequence (P29466 317-404 limits assumed): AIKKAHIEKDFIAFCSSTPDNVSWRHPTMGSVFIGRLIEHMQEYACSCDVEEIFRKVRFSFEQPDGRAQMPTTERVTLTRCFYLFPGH

Substance | kcat/KM caspase-4 (human caspase-4) | kcat/KM caspase-9 (human caspase-9) | kcat/KM caspase-5 (human caspase-5) | kcat/KM caspase-8 (human caspase-8) | kcat/KM caspase-3 (human caspase-3) | kcat/KM caspase-7 (human caspase-7) | kcat/KM caspase-1 (human caspase-1)
W[Met(O2)]HD | 9 620 M^-1s^-1 | 6 700 M^-1s^-1 | 15 430 M^-1s^-1 | 2 380 M^-1s^-1 | 4 970 M^-1s^-1 | 60 M⁻¹ s⁻¹ | 547 600 M^-1s^-1
W[Tle]HD | 10 640 M^-1s^-1 | 10 220 M^-1s^-1 | 12 930 M^-1s^-1 | 1 240 M^-1s^-1 | 600 M⁻¹ s⁻¹ | 40 M⁻¹ s⁻¹ | 271 900 M^-1s^-1
Y(Me)QTD | 810 M⁻¹ s⁻¹ | 550 M⁻¹ s⁻¹ | 2 420 M^-1s^-1 | 2 670 M^-1s^-1 | 8 740 M^-1s^-1 | 1 530 M^-1s^-1 | 105 200 M^-1s^-1
YT(Bn)HD | 1 260 M^-1s^-1 | 7 970 M^-1s^-1 | 6 920 M^-1s^-1 | 4 760 M^-1s^-1 | 4 500 M^-1s^-1 | 270 M⁻¹ s⁻¹ | 201 400 M^-1s^-1
Y[Phe(F5)]HD | 2 270 M^-1s^-1 | 7 300 M^-1s^-1 | 14 900 M^-1s^-1 | 3 150 M^-1s^-1 | 8 500 M^-1s^-1 | 210 M⁻¹ s⁻¹ | 161 900 M^-1s^-1
[1Nal]Q[Abu]D | 2 190 M^-1s^-1 | 100 M⁻¹ s⁻¹ | 4 640 M^-1s^-1 | 4 420 M^-1s^-1 | 1 660 M^-1s^-1 | 220 M⁻¹ s⁻¹ | 168 100 M^-1s^-1
[2Nal]THD | 2 450 M^-1s^-1 | 5 660 M^-1s^-1 | 7 860 M^-1s^-1 | 1 990 M^-1s^-1 | 830 M⁻¹ s⁻¹ | 70 M⁻¹ s⁻¹ | 146 200 M^-1s^-1
[Cha]EHD | 21 340 M^-1s^-1 and 25 050 M^-1s^-1 | 8 770 M^-1s^-1 and 9 270 M^-1s^-1 | 34 640 M^-1s^-1 and 48 140 M^-1s^-1 | 28 040 M^-1s^-1 and 27 690 M^-1s^-1 | 6 390 M^-1s^-1 and 6 530 M^-1s^-1 | 370 M⁻¹ s⁻¹ and 380 M⁻¹ s⁻¹ | 184 300 M^-1s^-1 and 113 800 M^-1s^-1
[Cha]E[Tic]D | 37 900 M^-1s^-1 | 7 760 M^-1s^-1 | 28 860 M^-1s^-1 | 7 860 M^-1s^-1 | 10 440 M^-1s^-1 | 950 M⁻¹ s⁻¹ | 159 100 M^-1s^-1
[Phe(2-Cl)]E[Tic]D | 15 180 M^-1s^-1 | 5 410 M^-1s^-1 | 16 790 M^-1s^-1 | 13 980 M^-1s^-1 | 75 860 M^-1s^-1 | 10 040 M^-1s^-1 | 243 800 M^-1s^-1
[Tle]MHD | 2 020 M^-1s^-1 | 8 360 M^-1s^-1 | 5 120 M^-1s^-1 | 14 800 M^-1s^-1 | 20 740 M^-1s^-1 | 280 M⁻¹ s⁻¹ | 23 100 M^-1s^-1
[Tle][Bip]HD | 2 820 M^-1s^-1 | 8 430 M^-1s^-1 | 5 280 M^-1s^-1 | 11 700 M^-1s^-1 | 16 920 M^-1s^-1 | 160 M⁻¹ s⁻¹ | 10 900 M^-1s^-1
[Tle][Phe(2-Cl)]HD | 4 030 M^-1s^-1 | 8 070 M^-1s^-1 | 6 990 M^-1s^-1 | 6 220 M^-1s^-1 | 26 070 M^-1s^-1 | 350 M⁻¹ s⁻¹ | 31 900 M^-1s^-1
[Tle][Phe(4-Cl)]HD | 2 500 M^-1s^-1 | 9 100 M^-1s^-1 | 7 360 M^-1s^-1 | 10 600 M^-1s^-1 | 21 330 M^-1s^-1 | 160 M⁻¹ s⁻¹ | 13 300 M^-1s^-1
[Tle][Phg]HD | 320 M⁻¹ s⁻¹ | 9 870 M^-1s^-1 | 490 M⁻¹ s⁻¹ | 2 030 M^-1s^-1 | 6 710 M^-1s^-1 | 40 M⁻¹ s⁻¹ | 4 300 M^-1s^-1

Reference: article doi:10.1101/2025.02.11.637513v1 (bioRxiv, 2025)
